In patent US10428044B2, “3-amino-1,5,6,7-tetrahydro-4H-indol-4-ones” (Bayer Pharma Aktiengesellschaft, priority 2014, dated 2019):

These molecules were tested against (recombinant) catalytic domain of human Bub1 (amino acids 704-1085) (Homo sapiens (Human), UniProt O43683) (assay: Bub1 kinase assay (TR-FRET)). Details: ATP 10 μM final, peptide substrate 1 μM final, 60 min at 22° C., read-out: Biological Assay: Bub1 kinase assay median IC50.
Chain of (recombinant) catalytic domain of human Bub1 (amino acids 704-1085) (O43683 704-1085): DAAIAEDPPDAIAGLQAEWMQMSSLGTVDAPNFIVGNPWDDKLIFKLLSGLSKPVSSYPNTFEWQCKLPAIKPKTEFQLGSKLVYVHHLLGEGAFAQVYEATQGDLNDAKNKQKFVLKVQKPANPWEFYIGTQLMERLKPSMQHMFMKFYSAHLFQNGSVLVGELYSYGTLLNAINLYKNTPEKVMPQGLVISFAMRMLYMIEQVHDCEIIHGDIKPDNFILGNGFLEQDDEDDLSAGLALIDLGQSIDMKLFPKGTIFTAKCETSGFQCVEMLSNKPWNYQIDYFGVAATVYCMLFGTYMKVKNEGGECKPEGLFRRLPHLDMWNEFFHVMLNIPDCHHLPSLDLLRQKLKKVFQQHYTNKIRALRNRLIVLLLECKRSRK
Assay type: biochemical
In short: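 Compounds were serially diluted 1:3.4 from 2 mM DMSO stocks and incubated with the enzyme reaction for 60 min at 22° C. The reaction was stopped with EDTA, and biotinylated peptide phosphorylation was read by TR-FRET using Eu anti-mouse IgG, anti-phosphoserine antibody and streptavidin-XL665. IC50 was fitted by 4-parameter logistic to inhibition normalized to no-inhibitor and no-enzyme controls.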
In the case of CC1(C)CC(=O)c2c([nH]c(-c3ccnc(NC(=O)c4cnn(Cc5ccccc5)c4)c3)c2Nc2ccccc2)C1 [Example 478, 1-benzyl-N-{4-[6,6-dimethyl-4-oxo-3-(phenylamino)-4,5,6,7-tetrahydro-1H-indol-2-yl]pyridin-2-yl}-1H-pyrazole-4-carboxamide], the IC50 is reported as 0.00423 µM.
COc1ccc(Cn2cc(C(=O)Nc3cc(-c4[nH]c5c(c4Nc4ccccc4)C(=O)CC(C)(C)C5)ccn3)cn2)cc1 [Example 479, N-{4-[6,6-dimethyl-4-oxo-3-(phenylamino)-4,5,6,7-tetrahydro-1H-indol-2-yl]pyridin-2-yl}-1-(4-methoxybenzyl)-1H-pyrazole-4-carboxamide] showed an IC50 of 0.00509 µM.
CC1(C)CC(=O)c2c([nH]c(-c3ccnc(NC(=O)c4cncs4)c3)c2Nc2ccccc2)C1 [Example 480, N-{4-[6,6-dimethyl-4-oxo-3-(phenylamino)-4,5,6,7-tetrahydro-1H-indol-2-yl]pyridin-2-yl}-1,3-thiazole-5-carboxamide] showed an IC50 of 0.0063 µM.
Cc1ccc(CO)c(Nc2c(-c3ccncc3)[nH]c3c2C(=O)CC(C)(C)C3)c1 [Example 481, 3-{[2-(hydroxymethyl)-5-methylphenyl]amino}-6,6-dimethyl-2-(pyridin-4-yl)-1,5,6,7-tetrahydro-4H-indol-4-one] gave an IC50 of 0.0786 µM.
With Cc1ccc(Nc2c(-c3ccncc3)[nH]c3c2C(=O)CC(C)(C)C3)c(CO)c1 [Example 482, 3-{[2-(hydroxymethyl)-4-methylphenyl]amino}-6,6-dimethyl-2-(pyridin-4-yl)-1,5,6,7-tetrahydro-4H-indol-4-one] the IC50 was 0.0122 µM.
In the case of Cc1cccc(Nc2c(-c3ccncc3)[nH]c3c2C(=O)CC(C)(C)C3)c1CO [Example 483, 3-{[2-(hydroxymethyl)-3-methylphenyl]amino}-6,6-dimethyl-2-(pyridin-4-yl)-1,5,6,7-tetrahydro-4H-indol-4-one], the IC50 is reported as 0.00948 µM.
With O=C1CCCc2[nH]c(-c3ccnc(NCCCCc4ccccc4)c3)c(Nc3ccccc3)c21 [Example 484, 3-(phenylamino)-2-{2-[(4-phenylbutyl)amino]pyridin-4-yl}-1,5,6,7-tetrahydro-4H-indol-4-one] the IC50 was 0.907 µM.
In the case of CC1(C)CC(=O)c2c([nH]c(-c3ccncc3)c2Nc2ccc(F)cc2CO)C1 [Example 485, 3-{[4-fluoro-2-(hydroxymethyl)phenyl]amino}-6,6-dimethyl-2-(pyridin-4-yl)-1,5,6,7-tetrahydro-4H-indol-4-one], the IC50 is reported as 0.00584 µM.
CC1(C)CC(=O)c2c([nH]c(-c3ccncc3)c2Nc2cccc(F)c2CO)C1 [Example 486, 3-{[3-fluoro-2-(hydroxymethyl)phenyl]amino}-6,6-dimethyl-2-(pyridin-4-yl)-1,5,6,7-tetrahydro-4H-indol-4-one] was tested, and the IC50 was 0.00345 µM.
Work on CC1(C)CC(=O)c2c([nH]c(-c3ccncc3)c2Nc2cc(F)ccc2CO)C1 [Example 487, 3-{[5-fluoro-2-(hydroxymethyl)phenyl]amino}-6,6-dimethyl-2-(pyridin-4-yl)-1,5,6,7-tetrahydro-4H-indol-4-one] yielded an IC50 of 0.00335 µM.
With CC1(C)CC(=O)c2c([nH]c(-c3ccncc3)c2Nc2ccccc2C(C)(C)O)C1 [Example 488, 3-{[2-(2-hydroxypropan-2-yl)phenyl]amino}-6,6-dimethyl-2-(pyridin-4-yl)-1,5,6,7-tetrahydro-4H-indol-4-one] the IC50 was 0.0391 µM.
O=C1CCCc2[nH]c(-c3ccnc(NCCc4ccccc4)c3)c(Nc3ccccc3)c21 [Example 489, 3-(phenylamino)-2-{2-[(2-phenylethyl)amino]pyridin-4-yl}-1,5,6,7-tetrahydro-4H-indol-4-one] gave an IC50 of 3.32 µM.
Work on O=C1CCCc2[nH]c(-c3ccnc(NCCCc4ccccc4)c3)c(Nc3ccccc3)c21 [Example 490, 3-(phenylamino)-2-{2-[(3-phenylpropyl)amino]pyridin-4-yl}-1,5,6,7-tetrahydro-4H-indol-4-one] yielded an IC50 of 2.56 µM.
CCO/N=C1\CC(C)(C)Cc2[nH]c(-c3ccncc3)c(Nc3ccccc3)c21 [Example 491, 4-(ethoxyimino)-6,6-dimethyl-N-phenyl-2-(pyridin-4-yl)-4,5,6,7-tetrahydro-1H-indol-3-amine] was tested, and the IC50 was 1.24 µM.
For Cn1ccnc1COCC(=O)Nc1cc(-c2[nH]c3c(c2Nc2ccccc2)C(=O)CCC3)ccn1 [Example 493, 2-[(1-methyl-1H-imidazol-2-yl)methoxy]-N-{4-[4-oxo-3-(phenylamino)-4,5,6,7-tetrahydro-1H-indol-2-yl]pyridin-2-yl}acetamide], the IC50 was 0.00863 µM.
Cn1ncnc1COCC(=O)Nc1cc(-c2[nH]c3c(c2Nc2ccccc2)C(=O)CCC3)ccn1 [Example 494, 2-[(1-methyl-1H-1,2,4-triazol-5-yl)methoxy]-N-{4-[4-oxo-3-(phenylamino)-4,5,6,7-tetrahydro-1H-indol-2-yl]pyridin-2-yl}acetamide] gave an IC50 of 0.0109 µM.
In the case of O=C(COCc1ccccn1)Nc1cc(-c2[nH]c3c(c2Nc2ccccc2)C(=O)CCC3)ccn1 [Example 495, N-{4-[4-oxo-3-(phenylamino)-4,5,6,7-tetrahydro-1H-indol-2-yl]pyridin-2-yl}-2-(pyridin-2-ylmethoxy)acetamide], the IC50 is reported as 0.0106 µM.
Cc1ncsc1COCC(=O)Nc1cc(-c2[nH]c3c(c2Nc2ccccc2)C(=O)CCC3)ccn1 [Example 496, 2-[(4-methyl-1,3-thiazol-5-yl)methoxy]-N-{4-[4-oxo-3-(phenylamino)-4,5,6,7-tetrahydro-1H-indol-2-yl]pyridin-2-yl}acetamide] showed an IC50 of 0.00646 µM.
With CC1(C)CC(=O)c2c([nH]c(-c3ccnc(NCCCc4ccccc4)c3)c2Nc2ccccc2)C1 [Example 497, 6,6-dimethyl-3-(phenylamino)-2-{2-[(3-phenylpropyl)amino]pyridin-4-yl}-1,5,6,7-tetrahydro-4H-indol-4-one] the IC50 was 1.44 µM.
For CC1(C)CC(=O)c2c([nH]c(-c3ccnc(NCCc4ccccc4)c3)c2Nc2ccccc2)C1 [Example 498, 6,6-dimethyl-3-(phenylamino)-2-{2-[(2-phenylethyl)amino]pyridin-4-yl}-1,5,6,7-tetrahydro-4H-indol-4-one], the IC50 was 1.26 µM.
Molecule O=C1CCCc2[nH]c(-c3ccnc(NCc4ccc(F)cc4)c3)c(Nc3ccccc3)c21 [Example 499, 2-{2-[(4-fluorobenzyl)amino]pyridin-4-yl}-3-(phenylamino)-1,5,6,7-tetrahydro-4H-indol-4-one] has an IC50 of 0.83 µM.
Work on O=C1CCCc2[nH]c(-c3ccnc(NCc4cncs4)c3)c(Nc3ccccc3)c21 [Example 500, 3-(phenylamino)-2-{2-[(1,3-thiazol-5-ylmethyl)amino]pyridin-4-yl}-1,5,6,7-tetrahydro-4H-indol-4-one] yielded an IC50 of 0.356 µM.
Molecule O=C1CCCc2[nH]c(-c3ccnc(NCc4cscn4)c3)c(Nc3ccccc3)c21 [Example 501, 3-(phenylamino)-2-{2-[(1,3-thiazol-4-ylmethyl)amino]pyridin-4-yl}-1,5,6,7-tetrahydro-4H-indol-4-one] has an IC50 of 0.0967 µM.
In the case of O=C(COCC(F)(F)F)Nc1cc(-c2[nH]c3c(c2Nc2ccccc2)C(=O)CCC3)ccn1 [Example 502, N-{4-[4-oxo-3-(phenylamino)-4,5,6,7-tetrahydro-1H-indol-2-yl]pyridin-2-yl}-2-(2,2,2-trifluoroethoxy)acetamide], the IC50 is reported as 0.0144 µM.
O=C1CCCc2[nH]c(-c3ccncc3)c(Nc3ccccn3)c21 [Example 503, 2-(pyridin-4-yl)-3-(pyridin-2-ylamino)-1,5,6,7-tetrahydro-4H-indol-4-one] gave an IC50 of 0.0361 µM.
For Cn1ccc(C(=O)Nc2cc(-c3[nH]c4c(c3Nc3ccccc3)C(=O)CC(C)(C)C4)ccn2)n1 [Example 504, N-{4-[6,6-dimethyl-4-oxo-3-(phenylamino)-4,5,6,7-tetrahydro-1H-indol-2-yl]pyridin-2-yl}-1-methyl-1H-pyrazole-3-carboxamide], the IC50 was 0.00614 µM.
For CC1(C)CC(=O)c2c([nH]c(-c3ccnc(NC(=O)c4nccs4)c3)c2Nc2ccccc2)C1 [Example 505, N-{4-[6,6-dimethyl-4-oxo-3-(phenylamino)-4,5,6,7-tetrahydro-1H-indol-2-yl]pyridin-2-yl}-1,3-thiazole-2-carboxamide], the IC50 was 0.0111 µM.
Cn1cc(C(=O)Nc2cc(-c3[nH]c4c(c3Nc3ccccc3)C(=O)CC(C)(C)C4)ccn2)cn1 [Example 506, N-{4-[6,6-dimethyl-4-oxo-3-(phenylamino)-4,5,6,7-tetrahydro-1H-indol-2-yl]pyridin-2-yl}-1-methyl-1H-pyrazole-4-carboxamide] gave an IC50 of 0.00777 µM.
CC1(C)CC(=O)c2c([nH]c(-c3ccnc(NCCCCc4ccccc4)c3)c2Nc2ccccc2)C1 [Example 507, 6,6-dimethyl-3-(phenylamino)-2-{2-[(4-phenylbutyl)amino]pyridin-4-yl}-1,5,6,7-tetrahydro-4H-indol-4-one] showed an IC50 of 0.959 µM.
In the case of CC1(C)CC(=O)c2c([nH]c(-c3ccnc(NCc4cncs4)c3)c2Nc2ccccc2)C1 [Example 508, 6,6-dimethyl-3-(phenylamino)-2-{2-[(1,3-thiazol-5-ylmethyl)amino]pyridin-4-yl}-1,5,6,7-tetrahydro-4H-indol-4-one], the IC50 is reported as 0.193 µM.
With CC1(C)CC(=O)c2c([nH]c(-c3ccnc(NCC4CC4)c3)c2Nc2ccccc2)C1 [Example 509, 2-{2-[(cyclopropylmethyl)amino]pyridin-4-yl}-6,6-dimethyl-3-(phenylamino)-1,5,6,7-tetrahydro-4H-indol-4-one] the IC50 was 0.221 µM.
In the case of CC1(C)CC(=O)c2c([nH]c(-c3ccncc3)c2Nc2cnccc2CO)C1 [Example 510, 3-{[4-(hydroxymethyl)pyridin-3-yl]amino}-6,6-dimethyl-2-(pyridin-4-yl)-1,5,6,7-tetrahydro-4H-indol-4-one], the IC50 is reported as 0.0253 µM.
CC1(C)CC(=O)c2c([nH]c(-c3ccncc3)c2Nc2ncccc2CO)C1 [Example 511, 3-{[3-(hydroxymethyl)pyridin-2-yl]amino}-6,6-dimethyl-2-(pyridin-4-yl)-1,5,6,7-tetrahydro-4H-indol-4-one] was tested, and the IC50 was 0.0652 µM.
